What was measured:
[1] = Permeability of compound by PAMP assay; assay type: ADME; settings: not told; read-out: permeability
Homo sapiens [2] = organism: Homo sapiens; assay: Binding affinity to mCherry labelled that cyclophilin (unknown origin) relative to control
Homo sapiens [3] = organism: Homo sapiens; assay: Binding affinity to mCherry labelled that cyclophilin (unknown origin) assessed as fold change

SMILES	Papp [1] [×10⁻⁶ cm/s]	Activity (Homo sapiens [2]) [%]	fold change (FC) (Homo sapiens [3])
C/C=C/C[C@@H](C)[C@@H](O)[C@H]1C(=O)N[C@@H](CC)C(=O)N(C)CC(=O)N[C@@H](CC(C)C)C(=O)N[C@@H](C(C)C)C(=O)N(C)[C@@H](CC(C)C)C(=O)N[C@@H](C)C(=O)N[C@H](C)C(=O)N(C)[C@@H](CC(C)C)C(=O)N(C)[C@@H](CC(C)C)C(=O)N(C)[C@@H](C(C)C)C(=O)N1C	2.5		
C/C=C/C[C@@H](C)[C@@H](O)[C@H]1C(=O)N[C@@H](CC)C(=O)N(C)CC(=O)N(C)[C@@H](CC(C)C)C(=O)N[C@@H](C(C)C)C(=O)N(C)[C@@H](CC(C)C)C(=O)N[C@@H](C)C(=O)N[C@H](C)C(=O)N(C)[C@@H](CC(C)C)C(=O)N(C)[C@@H](CC(C)C)C(=O)N[C@@H](C(C)C)C(=O)N1C	0.42		
C/C=C/C[C@@H](C)[C@@H](O)[C@H]1C(=O)N[C@@H](CC)C(=O)N(C)CC(=O)N(C)[C@@H](C(C)C)C(=O)N[C@@H](C(C)C)C(=O)N(C)[C@@H](CC(C)C)C(=O)N[C@@H](C)C(=O)N[C@H](C)C(=O)N(C)[C@@H](CC(C)C)C(=O)N(C)[C@@H](CC(C)C)C(=O)N(C)[C@@H](C(C)C)C(=O)N1C		126	2
C/C=C/C[C@@H](C)[C@@H](O)[C@H]1C(=O)N[C@@H](CC)C(=O)N(C)CC(=O)N[C@@H](CC(C)C)C(=O)N[C@@H](C(C)C)C(=O)N[C@@H](CC(C)C)C(=O)N[C@@H](C)C(=O)N[C@H](C)C(=O)N(C)[C@@H](CC(C)C)C(=O)N(C)[C@@H](CC(C)C)C(=O)N(C)[C@@H](C(C)C)C(=O)N1C	4.1		

Now from value to compound, other results behind:

Papp [1] [×10⁻⁶ cm/s]	SMILES	Activity (Homo sapiens [2]) [%]	fold change (FC) (Homo sapiens [3])
4.4	C/C=C/C[C@@H](C)[C@@H](O)[C@H]1C(=O)N[C@@H](C(C)C)C(=O)N(C)CC(=O)N(C)[C@@H](CC(C)C)C(=O)N[C@@H](C(C)C)C(=O)N(C)[C@@H](CC(C)C)C(=O)N[C@@H](C)C(=O)N[C@H](C)C(=O)N(C)[C@@H](CC(C)C)C(=O)N(C)[C@@H](CC(C)C)C(=O)N(C)[C@@H](C(C)C)C(=O)N1C		
7.9	C/C=C/C[C@@H](C)[C@@H](O)[C@H]1C(=O)N[C@@H](C)C(=O)N(C)CC(=O)N(C)[C@@H](CC(C)C)C(=O)N[C@@H](C(C)C)C(=O)N(C)[C@@H](CC(C)C)C(=O)N[C@@H](C)C(=O)N[C@H](C)C(=O)N(C)[C@@H](CC(C)C)C(=O)N(C)[C@@H](CC(C)C)C(=O)N(C)[C@@H](C(C)C)C(=O)N1C		
2.8	C/C=C/C[C@@H](C)[C@@H](O)[C@H]1C(=O)N[C@@H]([C@@H](C)O)C(=O)N(C)CC(=O)N(C)[C@@H](CC(C)C)C(=O)N[C@@H](C(C)C)C(=O)N(C)[C@@H](CC(C)C)C(=O)N[C@@H](C)C(=O)N[C@H](C)C(=O)N(C)[C@@H](CC(C)C)C(=O)N(C)[C@@H](CC(C)C)C(=O)N(C)[C@@H](C(C)C)C(=O)N1C		
3.3	C/C=C/C[C@@H](C)[C@@H](OC(C)=O)[C@H]1C(=O)N[C@@H](CC)C(=O)N(C)CC(=O)N(C)[C@@H](CC(C)C)C(=O)N[C@@H](C(C)C)C(=O)N(C)[C@@H](CC(C)C)C(=O)N[C@@H](C)C(=O)N[C@H](C)C(=O)N(C)[C@@H](CC(C)C)C(=O)N(C)[C@@H](CC(C)C)C(=O)N(C)[C@@H](C(C)C)C(=O)N1C		
